Here are results for four compounds from ChEMBL document CHEMBL1156512, “Accumulation of glucosylceramide in murine testis, caused by inhibition of beta-glucosidase 2: implications for spermatogenesis” (J Biol Chem, 2007).

Data set [1] relates to Mus musculus. The experiment in a line: Increase in very long and polyunsaturated glucosylceramide level in C57BL/6 mouse testes at 150 mg/kg/day administered with chow. The format is functional, organism-based. Conditions: Testis.
The subject of data set [2] is Mus musculus. The experiment in a line: Increase in glucosylceramide level in GBA2 deficient C57BL/6-129S1 mouse testes at 150 mg/kg/day administered with chow. Type of data set: functional, organism-based. Conditions: Testis.
For data set [3], the system named is Mus musculus. The experiment in a line: Increase in glucosylceramide level in GBA2 deficient C57BL/6-129S1 mouse somatic cells at 150 mg/kg/day administered with chow. Type of data set: functional, organism-based.
In data set [4] the test system is Mus musculus. The experiment in a line: Increase in glucosylceramide level in GBA2 deficient C57BL/6-129S1 mouse germ cells at 150 mg/kg/day administered with chow. Type of data set: functional, organism-based.
Data set [5] deals with Mus musculus. The experiment in a line: Effect on testicular ceramides level in C57BL/6 mouse at 150 mg/kg/day administered with chow. The format is functional, organism-based.
For data set [6], the system named is Mus musculus. The experiment in a line: Effect on testicular sphingomyelin level in C57BL/6 mouse at 150 mg/kg/day administered with chow. Type of data set: functional, organism-based.
Data set [7] has as its system Mus musculus. The experiment in a line: Decrease in testicular very long chain polyunsaturated fatty acid sphingomyelin level in beta-glucosidase 2 deficient C57BL/6-129S1 mouse at 150 mg/kg/day administered with chow. Type of data set: functional, organism-based.
The test system of data set [8] is Serum. The experiment in a line: Drug level in C57BL/6 mouse serum at 15 mg/kg/day assessed as enzyme activity. The format is ADME, organism-based. The conditions noted are these: in vivo, read-out: Drug uptake.
Data set [9] has as its system Mus musculus. The experiment in a line: Effect on spermatogenesis in C57BL/10 mouse assessed as morphological changes in spermatozoa at 15 mg/kg/day administered with chow. The format is functional, organism-based.
Data set [10] concerns Mus musculus. The experiment in a line: Effect on spermatogenesis in C57BL/6 mouse assessed as morphological changes in spermatozoa at 150 mg/kg/day administered with chow. Type of data set: functional, organism-based.
Data set [11] relates to Mus musculus. The experiment in a line: Effect on spermatogenesis in C57BR mouse assessed as morphological changes in spermatozoa at 150 mg/kg/day administered with chow. Type of data set: functional, organism-based.
The subject of data set [12] is Mus musculus. The experiment in a line: Effect on spermatogenesis in BALB/c mouse assessed as morphological changes in spermatozoa at 150 mg/kg/day administered with chow. Type of data set: functional, organism-based.
For data set [13], the system named is Mus musculus. The experiment in a line: Effect on spermatogenesis in AKR mouse assessed as morphological changes in spermatozoa at 150 mg/kg/day administered with chow. The format is functional, organism-based.
The subject of data set [14] is Mus musculus. The experiment in a line: Effect on spermatogenesis in MA/My mouse assessed as morphological changes in spermatozoa at 150 mg/kg/day administered with chow. The format is functional, organism-based.
In data set [15] the test system is Mus musculus. The experiment in a line: Effect on spermatogenesis in NZW mouse assessed as morphological changes in spermatozoa at 150 mg/kg/day administered with chow. The format is functional, organism-based.
The subject of data set [16] is Mus musculus. The experiment in a line: Effect on spermatogenesis in DBA2 mouse assessed as morphological changes in spermatozoa at 150 mg/kg/day administered with chow. The format is functional, organism-based.
In data set [17] the test system is Mus musculus. The experiment in a line: Effect on spermatogenesis in C57BL/6-129S1 mouse assessed as morphological changes in spermatozoa at 150 mg/kg/day administered with chow. The format is functional, organism-based.
For data set [18], the system named is Mus musculus. The experiment in a line: Effect on spermatogenesis in C3H mouse assessed as morphological changes in spermatozoa at 150 mg/kg/day administered with chow. The format is functional, organism-based.
For data set [19], the system named is Mus musculus. The experiment in a line: Effect on spermatogenesis in FVB/N mouse assessed as morphological changes in spermatozoa at 15 mg/kg/day administered with chow. The format is functional, organism-based.
Data set [20] relates to Mus musculus. The experiment in a line: Effect on complex glycosylated sphingolipids level in C57BL/6 mouse testes at 15 to 50 mg/kg/day, po. The format is functional, organism-based. Conditions: Testis.
Data set [21] has as its system Mus musculus. The experiment in a line: Reduction of complex glycosylated sphingolipids level in C57BL/6 mouse testes at 2400 mg/kg/day administered with chow. Type of data set: functional. Set-up: scale not given: the % may be the effect or the level left.
Data set [22] deals with Mus musculus. The experiment in a line: Increase in complex glycosylated sphingolipids in C57BL/6 mouse testes at 5 mg/kg/day administered with chow. The format is functional, Testis.
In data set [23] the test system is Mus musculus. The experiment in a line: Increase in complex glycosylated sphingolipids level in C57BL/6 mouse testes at 15 mg/kg/day administered with chow after 6 to 9 months. Type of data set: functional, organism-based. The conditions noted are these: Testis.
Data set [24] is filed under the species Mus musculus. The experiment in a line: Increase in neutral glycolipids level in C57BL/6 mouse testes. The format is functional, organism-based. The conditions noted are these: Testis.
The species entered for data set [25] is Mus musculus. The experiment in a line: Effect on glucosylceramide level in C57BL/6 mouse testes. Type of data set: functional, organism-based. Conditions: Testis.
Data set [26] relates to Mus musculus. The experiment in a line: Effect on glucosylceramide level in C57BL/6 mouse testes at 15 mg/kg/day administered with chow. The conditions noted are these: Testis. The format is functional, organism-based.
Data set [27] has as its system Mus musculus. The experiment in a line: Increase in glucosylceramide level in C57BL/6 mouse testes at 300 mg/kg/day administered with chow. The conditions noted are these: Testis. The format is functional, organism-based.
Data set [28] relates to Mus musculus. The experiment in a line: Increase in glucosylceramide level in C57BL/6 mouse spleen administered with chow. Type of data set: functional, organism-based.
The test system of data set [29] is Mus musculus. The experiment in a line: Increase in glucosylceramide level in C57BL/6 mouse liver administered with chow. Type of data set: functional, organism-based.
The test system of data set [30] is Mus musculus. The experiment in a line: Increase in glucosylceramide level in C57BL/6 mouse brain at 1200 mg/kg/day administered with chow. Type of data set: functional, organism-based.
Data set [31] concerns Mus musculus. The experiment in a line: Increase in glucosylceramide level in C57BL/6 mouse testes administered with chow after 5 days. Type of data set: functional, organism-based. The conditions noted are these: Testis.
Data set [32] has as its system Mus musculus. The experiment in a line: Increase in glucosylceramide level in C57BL/6 mouse testes administered with chow at 15 mg/kg/day after 3 to 12 months. Type of data set: functional, Testis.
In data set [33] the test system is Mus musculus. The experiment in a line: Increase in long and saturated glucosylceramide level in C57BL/6 mouse testes at 150 mg/kg/day administered with chow. Conditions: Testis. The format is functional, organism-based.
The target in data set [34] is T1, Ceramide glucosyltransferase (Mus musculus, UniProt O88693).
T1 sequence (O88693 whole entry): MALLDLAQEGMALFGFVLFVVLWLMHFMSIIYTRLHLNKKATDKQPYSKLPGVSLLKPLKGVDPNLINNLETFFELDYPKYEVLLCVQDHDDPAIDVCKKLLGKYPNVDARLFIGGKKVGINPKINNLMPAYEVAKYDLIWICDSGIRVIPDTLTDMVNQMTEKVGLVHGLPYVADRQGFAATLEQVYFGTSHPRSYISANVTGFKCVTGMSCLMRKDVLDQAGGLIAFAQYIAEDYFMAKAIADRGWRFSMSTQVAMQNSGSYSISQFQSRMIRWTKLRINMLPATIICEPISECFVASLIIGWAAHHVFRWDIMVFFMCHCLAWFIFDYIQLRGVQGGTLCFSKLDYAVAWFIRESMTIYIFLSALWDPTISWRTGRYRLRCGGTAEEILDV
The experiment in a line: Inhibition mouse glucosylceramide synthase.

Data set [35] addresses T2, Beta-glucosidase (Homo sapiens, UniProt Q9HCG7).
T2 sequence (Q9HCG7 whole entry): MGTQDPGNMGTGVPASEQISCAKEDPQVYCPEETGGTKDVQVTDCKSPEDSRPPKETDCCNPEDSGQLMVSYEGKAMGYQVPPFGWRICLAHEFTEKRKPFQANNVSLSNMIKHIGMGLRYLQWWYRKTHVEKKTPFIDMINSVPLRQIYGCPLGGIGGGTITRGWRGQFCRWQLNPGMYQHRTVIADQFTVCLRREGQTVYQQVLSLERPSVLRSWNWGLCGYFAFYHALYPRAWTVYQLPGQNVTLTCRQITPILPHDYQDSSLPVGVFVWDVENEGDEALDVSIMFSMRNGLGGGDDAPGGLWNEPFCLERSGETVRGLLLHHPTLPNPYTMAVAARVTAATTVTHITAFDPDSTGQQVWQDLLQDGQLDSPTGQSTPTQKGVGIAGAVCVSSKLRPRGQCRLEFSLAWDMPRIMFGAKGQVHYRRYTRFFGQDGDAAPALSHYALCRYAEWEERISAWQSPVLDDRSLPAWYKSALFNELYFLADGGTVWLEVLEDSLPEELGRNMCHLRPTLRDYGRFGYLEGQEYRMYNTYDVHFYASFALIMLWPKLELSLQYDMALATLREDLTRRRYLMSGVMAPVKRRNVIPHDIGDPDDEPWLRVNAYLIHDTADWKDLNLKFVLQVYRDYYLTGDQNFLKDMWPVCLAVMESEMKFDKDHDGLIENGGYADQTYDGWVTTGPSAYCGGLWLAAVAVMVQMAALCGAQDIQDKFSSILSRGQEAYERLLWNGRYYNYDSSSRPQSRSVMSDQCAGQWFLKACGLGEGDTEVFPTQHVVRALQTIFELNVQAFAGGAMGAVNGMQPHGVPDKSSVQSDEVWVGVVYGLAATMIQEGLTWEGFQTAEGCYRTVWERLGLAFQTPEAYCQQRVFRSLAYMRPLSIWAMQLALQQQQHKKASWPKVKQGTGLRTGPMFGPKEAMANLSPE
The experiment in a line: Inhibition of bile acid beta-glucosidase activity of human liver GBA2.

The source made the active and inactive calls. The calls are words filed in the database; no cut-off is given here.

On to `CCCCN1C[C@H](O)[C@@H](O)[C@H](O)[C@H]1CO`, for which the outcome in [1], in data set [2], in data set [3], in data set [4], in data set [7] and in data set [9] was Active. For the same compound, the result in [10], in [11], in data set [23], in [24], in data set [26] and in data set [27] was Active. For the same compound, the result in data set [28], in data set [30], in data set [31] and in data set [33] was Active. The outcome in data set [5], in data set [6], in [12], in [13], in data set [14] and in data set [15] was inactive. Besides, the result in data set [16], in data set [17], in [18], in data set [19], in data set [20] and in [29] was inactive. The concentration in data set [8] was found to be 490 nM. The Activity in data set [21] is 22%; in data set [22] it was 15%; in data set [25] it was “Dose-dependent effect”; in data set [32] it was 5.
With `CCCCN1[C@H](CO)[C@H](O)[C@H](O)[C@@H](O)[C@@H]1O`, 5.3 µM corresponded to half-maximal inhibition in data set [34] (IC50).
Turning to `CCCCCCCCCCCCN1C[C@H](O)[C@@H](O)[C@H](O)[C@H]1CO`, in data set [35], it took 2 nM to reach half-maximal inhibition (IC50).
Same read-out and setting: to `CCCCCCCCCOC(=O)N1C[C@H](O)[C@@H](O)[C@H](O)[C@H]1CO` belongs 20 nM.
